Reference: ChEMBL document CHEMBL1201862, “PubChem BioAssay data set” (2004)
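Each compound was tested at five concentrations against cells in 96-well plates for 48 hours. Abbreviation: GI50, concentration required for 50% inhibition of growth.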 Calls of active or inactive are those of the source. Rule as the data show it: active = GI50 up to about 1.1 µM and inactive = higher.

What was measured:
Test in all cases: NCI-60 cell line screen, 48 h
[1] = system: EKVX
[2] = system: HCT-116
[3] = system: HCT-15
[4] = system: Hs-578T
[5] = system: IGROV-1
[6] = system: K562
[7] = system: MDA-MB-435
[8] = system: NCI-H226
[9] = system: NCI-H23
[10] = system: NCI-H460
[11] = system: NCI/ADR-RES
[12] = system: PC-3
[13] = system: RXF 393
[14] = system: SF-268
[15] = system: SK-OV-3
[16] = system: SNB-75
[17] = system: T47D
[18] = system: UACC-257
[19] = system: SN12C

Compound	GI50 [1]	GI50 [2]	GI50 [3]	GI50 [4]	GI50 [5]	GI50 [6]	GI50 [7]	GI50 [8]	GI50 [9]	GI50 [10]	GI50 [11]	GI50 [12]	GI50 [13]	GI50 [14]	GI50 [15]	GI50 [16]	GI50 [17]	GI50 [18]	GI50 [19]
NC(N)=NCCC[C@H](N)C(=O)NCC(=O)N[C@@H](CC(=O)O)c1ncc(NC(=O)C(F)(F)F)o1	> 25 µM (inactive)	> 25 µM (inactive)	> 25 µM	> 25 µM (inactive)	> 25 µM (inactive)	> 25 µM (inactive)	> 25 µM (inactive)	> 25 µM (inactive)	> 25 µM (inactive)	> 25 µM (inactive)	> 25 µM (inactive)	> 25 µM (inactive)	> 25 µM (inactive)	> 25 µM (inactive)	> 25 µM (inactive)	> 25 µM (inactive)	> 25 µM (inactive)	> 25 µM (inactive)	
COc1ccc2cc(CNCCCCCCCCNCc3ccc4cc(OC)ccc4c3)ccc2c1	6.87 µM (inactive)	4.42 µM (inactive)	2 µM	8.77 µM (inactive)	5.21 µM (inactive)	0.975 µM (active)	4.94 µM (inactive)	14 µM (inactive)	13.8 µM (inactive)	2.07 µM (inactive)	6.65 µM (inactive)	1.45 µM (inactive)	8.07 µM (inactive)	4.34 µM (inactive)		3.41 µM (inactive)	21.2 µM (inactive)	6.76 µM (inactive)	
COCN1C(=O)[C@@H]2C[C@@H](O)CN2C(=O)c2ccccc21	> 100 µM (inactive)	> 100 µM (inactive)	> 100 µM	> 100 µM (inactive)	> 100 µM (inactive)	> 100 µM (inactive)	> 100 µM (inactive)		> 100 µM (inactive)	> 100 µM (inactive)	> 100 µM (inactive)	> 100 µM (inactive)	> 100 µM (inactive)	> 100 µM (inactive)	> 100 µM (inactive)	> 100 µM (inactive)	> 100 µM (inactive)	> 100 µM (inactive)	> 100 µM (inactive)
CC1=COC(C)(C=C(C#N)C#N)CC1 (stereo unspecified)	> 100 µM (inactive)	33 µM (inactive)	> 10 µM	15.4 µM (inactive)	88.3 µM (inactive)	30.5 µM (inactive)	32.4 µM (inactive)	> 100 µM (inactive)	61 µM (inactive)	> 100 µM (inactive)	48.4 µM (inactive)		> 100 µM (inactive)	> 100 µM (inactive)	> 100 µM (inactive)	65.8 µM (inactive)	98.4 µM (inactive)	57.3 µM (inactive)	49.9 µM (inactive)
O=C1CC(n2cccc2)c2cc(Br)sc21 (stereo unspecified)	> 100 µM (inactive)	66.7 µM (inactive)	> 100 µM	> 100 µM (inactive)	> 100 µM (inactive)	> 100 µM (inactive)	87.5 µM (inactive)	> 100 µM (inactive)	39.1 µM (inactive)	> 100 µM (inactive)	> 100 µM (inactive)	> 100 µM (inactive)		> 100 µM (inactive)	> 100 µM (inactive)	7.93 µM (inactive)	48.3 µM (inactive)	> 100 µM (inactive)	43.9 µM (inactive)
CCOC(=O)/C(C#N)=N\Nc1ccc(-n2c(C)nc3ccccc3c2=O)cc1	53.2 µM (inactive)	59.6 µM (inactive)	62.1 µM	59 µM (inactive)	51.2 µM (inactive)	49.1 µM (inactive)	47.6 µM (inactive)	24.5 µM (inactive)	> 100 µM (inactive)	67.5 µM (inactive)	18.9 µM (inactive)	75.3 µM (inactive)		> 100 µM (inactive)	> 100 µM (inactive)	63.5 µM (inactive)	34.8 µM (inactive)	61.4 µM (inactive)	> 100 µM (inactive)
C=CCn1cnc2c(O)nc(Nc3ccccc3)nc21	> 100 µM (inactive)	> 100 µM (inactive)	> 100 µM	> 100 µM (inactive)	> 100 µM (inactive)		> 100 µM (inactive)	> 100 µM (inactive)		> 100 µM (inactive)	> 100 µM (inactive)	> 100 µM (inactive)		> 100 µM (inactive)	> 100 µM (inactive)	> 100 µM (inactive)	> 100 µM (inactive)	> 100 µM (inactive)	> 100 µM (inactive)
CO/C(N)=C(C#N)/N=C/c1ccco1	> 100 µM (inactive)	> 100 µM (inactive)	> 100 µM	> 100 µM (inactive)	> 100 µM (inactive)	> 100 µM (inactive)	> 100 µM (inactive)	> 100 µM (inactive)	> 100 µM (inactive)		> 100 µM (inactive)	> 100 µM (inactive)	> 100 µM (inactive)	> 100 µM (inactive)	> 100 µM (inactive)	> 100 µM (inactive)	> 100 µM (inactive)	> 100 µM (inactive)	> 100 µM (inactive)
